Test results published in ChEMBL document CHEMBL1201862, “PubChem BioAssay data set” (2004).
Active and inactive are the calls of the source. Where a SMILES comes first, the peptide text is derived from it. [ ]: non-standard residue; d: D form. The star is where a group is joined. Ac5c = NC1(C(=O)O)CCCC1; Cbz = O=C(OCc1ccccc1)*

Key:
[1] = molecular target: DNA dC->dU-editing enzyme APOBEC-3A (Homo sapiens, UniProt P31941); assay: Dose Response confirmation of small molecule APOBEC3A DNA Deaminase Inhibitors via a fluorescence-based single-stranded DNA deaminase assay. [Related pubchem assays (depositor defined):AID493011, AID493024]; format: functional
Chain of DNA dC->dU-editing enzyme APOBEC-3A (P31941 whole entry): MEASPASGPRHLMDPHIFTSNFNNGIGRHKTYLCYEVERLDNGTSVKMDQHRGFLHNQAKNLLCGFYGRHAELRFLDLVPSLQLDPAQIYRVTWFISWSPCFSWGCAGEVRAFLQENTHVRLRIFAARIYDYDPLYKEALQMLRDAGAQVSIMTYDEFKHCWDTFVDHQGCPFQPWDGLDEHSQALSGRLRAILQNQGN

[2] = molecular target: DNA dC->dU-editing enzyme APOBEC-3G (Homo sapiens, UniProt Q9HC16); format: functional;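 further: Dose-response counterscreen measuring inhibition of APOBEC3G DNA deaminase activity, run while confirming APOBEC3A inhibitors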
Chain of DNA dC->dU-editing enzyme APOBEC-3G (Q9HC16 whole entry): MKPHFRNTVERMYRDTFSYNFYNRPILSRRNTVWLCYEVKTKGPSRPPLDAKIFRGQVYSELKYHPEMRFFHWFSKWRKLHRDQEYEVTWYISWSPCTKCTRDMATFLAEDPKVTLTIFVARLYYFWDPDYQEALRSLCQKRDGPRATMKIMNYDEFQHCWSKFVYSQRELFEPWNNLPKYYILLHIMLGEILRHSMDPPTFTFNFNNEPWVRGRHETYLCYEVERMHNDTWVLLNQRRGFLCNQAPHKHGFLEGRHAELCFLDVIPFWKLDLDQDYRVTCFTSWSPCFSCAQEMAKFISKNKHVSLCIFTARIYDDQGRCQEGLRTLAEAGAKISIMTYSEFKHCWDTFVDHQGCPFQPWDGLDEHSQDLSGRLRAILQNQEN

[3] = molecular target: T1, Heat shock factor protein 1 (Mus musculus, UniProt P38532); assay: enhancement of HSF1-driven luciferase signal – cell-based, NIH3T3, luminescence, dose retest, confirmation (AID 435004); format: functional;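 further: stress induced by proteasome inhibitor MG132 added 30 min after compound; luciferase reporter driven by HSF1 response element in NIH3T3 cells; actives raise luminescence as potentiators of the MG132 stress response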
T1 sequence (P38532 whole entry): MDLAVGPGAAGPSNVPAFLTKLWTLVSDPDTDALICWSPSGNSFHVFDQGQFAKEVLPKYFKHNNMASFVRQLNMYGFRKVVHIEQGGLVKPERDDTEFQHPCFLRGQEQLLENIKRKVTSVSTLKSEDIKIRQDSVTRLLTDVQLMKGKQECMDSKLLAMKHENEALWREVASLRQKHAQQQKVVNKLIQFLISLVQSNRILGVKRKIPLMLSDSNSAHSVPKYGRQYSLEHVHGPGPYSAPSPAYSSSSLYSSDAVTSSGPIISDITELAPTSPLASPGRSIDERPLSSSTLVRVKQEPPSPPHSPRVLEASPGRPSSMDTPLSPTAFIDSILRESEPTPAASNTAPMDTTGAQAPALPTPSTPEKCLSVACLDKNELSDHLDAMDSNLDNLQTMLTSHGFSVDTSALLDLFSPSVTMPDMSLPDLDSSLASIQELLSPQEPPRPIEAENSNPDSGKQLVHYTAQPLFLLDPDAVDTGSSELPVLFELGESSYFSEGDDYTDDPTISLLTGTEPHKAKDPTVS

[4] = non-specific 3'UTR reporter inhibition in Clone20-Shn3RL – cell-based, Renilla luciferase, cherry-picked, counter-screen for Shn3 inhibitor project, dose response (AID 624133); format: functional
[5] = reduction of Shn3 3'UTR-driven luciferase in osteoblasts – cell-based, Clone20 osteoblasts, firefly luciferase, cherry-picked, dose response (AID 624132); format: functional;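 further: firefly luciferase luminescence from reporter carrying the Shn3 3'UTR in osteoblasts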
Large T antigen = Large T antigen (Simian virus 40, UniProt P03070); format: functional, Betapolyomavirus macacae;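 further: Confirmatory-stage PubChem screen for compounds that inhibit SV40 T antigen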
Chain of Large T antigen (P03070 whole entry): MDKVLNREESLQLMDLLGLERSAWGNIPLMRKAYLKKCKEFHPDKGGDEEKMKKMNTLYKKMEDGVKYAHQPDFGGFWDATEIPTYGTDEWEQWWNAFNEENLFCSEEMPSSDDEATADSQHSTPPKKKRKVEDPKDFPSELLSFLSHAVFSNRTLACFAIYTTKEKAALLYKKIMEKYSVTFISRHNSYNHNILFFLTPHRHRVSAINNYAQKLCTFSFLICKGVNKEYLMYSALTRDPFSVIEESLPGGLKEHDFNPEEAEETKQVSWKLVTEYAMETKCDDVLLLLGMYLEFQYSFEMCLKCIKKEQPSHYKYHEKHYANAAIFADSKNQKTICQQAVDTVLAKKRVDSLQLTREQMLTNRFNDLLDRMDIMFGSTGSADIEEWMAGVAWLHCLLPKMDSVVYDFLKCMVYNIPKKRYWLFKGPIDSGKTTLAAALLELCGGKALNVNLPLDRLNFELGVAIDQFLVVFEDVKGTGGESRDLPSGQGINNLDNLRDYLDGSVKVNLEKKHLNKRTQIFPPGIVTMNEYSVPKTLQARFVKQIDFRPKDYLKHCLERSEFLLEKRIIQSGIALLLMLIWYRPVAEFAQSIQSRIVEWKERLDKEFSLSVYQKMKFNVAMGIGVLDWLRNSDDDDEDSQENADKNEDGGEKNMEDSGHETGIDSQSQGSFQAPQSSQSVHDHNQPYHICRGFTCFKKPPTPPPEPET

[6] = molecular target: FAD-linked sulfhydryl oxidase ALR (Homo sapiens, UniProt P55789); assay: ALR-catalysed DTT oxidation blockers – biochemical, H2O2 detection, luminescence, cherry-pick, dose response (AID 493248)
Chain of FAD-linked sulfhydryl oxidase ALR (P55789 whole entry): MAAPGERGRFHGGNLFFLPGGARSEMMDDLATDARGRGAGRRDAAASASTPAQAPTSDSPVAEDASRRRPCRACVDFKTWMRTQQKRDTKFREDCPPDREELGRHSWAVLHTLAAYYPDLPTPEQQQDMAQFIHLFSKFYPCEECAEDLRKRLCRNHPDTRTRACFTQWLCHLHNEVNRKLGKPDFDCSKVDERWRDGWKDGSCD

Vero = assay: cells; format: functional; settings: Chlorocebus sabaeus
[7] = molecular target: T2, RNA-binding protein pos-1 (Caenorhabditis elegans, UniProt G5EF15); assay: disruptors of C. elegans POS-1 RNA interaction – biochemical, fluorescence polarization, dose response (AID 1964);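 further: purified POS-1 fused to maltose binding protein made in E. coli; potency of compounds blocking POS-1 binding to fluorescent RNA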
T2 sequence (G5EF15 whole entry): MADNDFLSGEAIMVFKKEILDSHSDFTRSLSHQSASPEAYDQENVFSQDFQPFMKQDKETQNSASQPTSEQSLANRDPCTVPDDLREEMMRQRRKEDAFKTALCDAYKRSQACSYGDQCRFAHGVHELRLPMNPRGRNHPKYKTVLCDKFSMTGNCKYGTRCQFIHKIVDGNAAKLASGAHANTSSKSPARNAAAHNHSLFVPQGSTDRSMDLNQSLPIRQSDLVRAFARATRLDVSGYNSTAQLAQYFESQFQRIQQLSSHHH

[8] = molecular target: T3, Zinc finger protein mex-5 (Caenorhabditis elegans, UniProt Q9XUB2); assay: potency of MEX-5 RNA-binding blockers – biochemical, C. elegans, fluorescence polarization, dose response (AID 1960)
T3 sequence (Q9XUB2 whole entry): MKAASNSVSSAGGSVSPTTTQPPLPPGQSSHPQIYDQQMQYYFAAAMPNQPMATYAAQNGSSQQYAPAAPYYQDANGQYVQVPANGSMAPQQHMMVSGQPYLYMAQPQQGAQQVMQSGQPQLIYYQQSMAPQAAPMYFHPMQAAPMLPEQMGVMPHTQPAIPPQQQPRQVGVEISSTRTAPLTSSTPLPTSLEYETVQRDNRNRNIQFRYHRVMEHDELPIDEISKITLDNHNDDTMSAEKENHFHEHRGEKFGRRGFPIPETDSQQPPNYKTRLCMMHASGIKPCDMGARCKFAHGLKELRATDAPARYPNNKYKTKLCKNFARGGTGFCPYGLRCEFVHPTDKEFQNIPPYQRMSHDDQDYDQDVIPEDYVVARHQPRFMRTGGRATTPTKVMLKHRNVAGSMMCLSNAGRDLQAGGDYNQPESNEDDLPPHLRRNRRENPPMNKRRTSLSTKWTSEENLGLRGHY

[9] = alpha-synuclein stem-loop luciferase translation blockers – H4 neuroglioma cells, luminescence, confirmation (AID 1988); format: functional, cell-based
cells [10] = format: functional, cell-based
[11] = luciferase reporter signal suppression in cells – H4 neuroglioma cells, luminescence, dose response (AID 1990); format: functional, cell-based
cells [12] = format: functional, cell-based; remark: listed apart in the source
[13] = Luminescence Cell-Based Dose Response HTS to Identify Inhibitors of 5'UTR Stem-Loop Driven Prion Protein mRNA Translation in H4 Neuroglioblastoma Cells. [Related pubchem assays: 1827 (Project Summary), 1813 (Primary HTS)]; format: functional
Streptokinase A = molecular target: T4, Streptokinase A (Streptococcus pyogenes serotype M1, UniProt P10520); assay: viability-normalized secreted streptokinase activity reduction – plasminogen activation absorbance, OD405, dose response (AID 1914); format: functional, Streptococcus pyogenes M1 GAS;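 further: secreted streptokinase activity via plasminogen activation per viability signal from cell pellet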
T4 sequence (P10520 whole entry): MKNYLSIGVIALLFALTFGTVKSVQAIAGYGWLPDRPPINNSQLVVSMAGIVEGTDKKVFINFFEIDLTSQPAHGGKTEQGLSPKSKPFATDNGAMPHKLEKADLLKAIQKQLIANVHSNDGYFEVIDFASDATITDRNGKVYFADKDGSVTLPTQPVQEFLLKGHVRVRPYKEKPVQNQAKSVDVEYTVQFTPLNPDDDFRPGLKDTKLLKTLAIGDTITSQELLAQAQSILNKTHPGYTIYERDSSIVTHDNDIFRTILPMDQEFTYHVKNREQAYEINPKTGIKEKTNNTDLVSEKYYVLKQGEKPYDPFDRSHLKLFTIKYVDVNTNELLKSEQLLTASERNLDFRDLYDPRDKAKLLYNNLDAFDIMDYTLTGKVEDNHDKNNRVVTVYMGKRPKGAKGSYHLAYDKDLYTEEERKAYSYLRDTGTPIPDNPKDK

[14] = Trypanosoma cruzi growth suppression in host cells – NIH3T3 host cells, beta-gal luminescence, confirmation (AID 2044); format: functional, cell-based;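 further: intracellular parasites grown in NIH/3T3 mouse fibroblasts as host cells; luminescent beta-galactosidase reporter signal from transgenic T. cruzi replicating inside host cells; inhibitors lower the luminescence signal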
INS1 = assay: INS-1E survival protection against cytokine death – cell-based, luminescence, retest, dose response (AID 449756); format: functional; settings: Rattus norvegicus;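 further: cell death triggered by IL-1 beta plus TNF-alpha plus IFN-gamma mixture; protective hits raise ATP signal compared with cytokine alone wells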
[15] = NIH3T3 cell viability loss – ATP luminescence, mouse fibroblasts, counter-screen, dose response (AID 2010); format: functional, cell-based;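 further: cells exposed to compound for about 90 hours before reading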
[16] = NIH-3T3 fibroblast cytotoxicity, dose response, cytotoxicity control, cell-based, fluorescence, Alamar Blue, secondary assay (AID 2327); format: functional;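 further: NIH-3T3 mouse fibroblasts cultured with fluconazole at 8 µg/mL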
Streptococcus = assay: GAS UMAA2166 growth inhibition – luminescence, BacTiterGlo, counter-screen for streptokinase expression inhibitor project, dose response (AID 1915); format: functional, organism-based;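 further: potency for reduction of bacterial viability or growth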
[17] = fluconazole-exposed Candida albicans growth modulators – fluorescence, retest, confirmation (AID 2467); format: functional, cell-based
[18] = test system: Streptococcus sp. 'group A'; assay: Streptococcus pyogenes SK(-)GAS viability under kanamycin – luminescence, BacTiterGlo, confirmation, counter-screen for streptokinase expression inhibitor project, dose response (AID 1900); format: functional, organism-based
Nonstructural protein 1 = Nonstructural protein 1 (Influenza A virus, UniProt Q194T2); format: functional, Influenza A virus (A/California/07/2009(H1N1))
Chain of Nonstructural protein 1 (Q194T2 whole entry): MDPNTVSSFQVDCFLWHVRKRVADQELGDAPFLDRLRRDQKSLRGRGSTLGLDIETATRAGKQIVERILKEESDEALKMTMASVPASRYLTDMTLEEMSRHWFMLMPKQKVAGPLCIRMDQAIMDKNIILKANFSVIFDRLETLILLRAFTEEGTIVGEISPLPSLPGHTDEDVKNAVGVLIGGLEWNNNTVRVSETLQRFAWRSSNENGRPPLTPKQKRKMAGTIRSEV

Cytochrome P450 2C19 = Cytochrome P450 2C19 (Homo sapiens, UniProt P33261); assay: Cytochrome panel assay with activity outcomes. Panel member name: p450-cyp2c19 Compounds with AC50 equal or less than 10 uM are considered active; format: functional; settings: read-out: AC50
Chain of Cytochrome P450 2C19 (P33261 whole entry): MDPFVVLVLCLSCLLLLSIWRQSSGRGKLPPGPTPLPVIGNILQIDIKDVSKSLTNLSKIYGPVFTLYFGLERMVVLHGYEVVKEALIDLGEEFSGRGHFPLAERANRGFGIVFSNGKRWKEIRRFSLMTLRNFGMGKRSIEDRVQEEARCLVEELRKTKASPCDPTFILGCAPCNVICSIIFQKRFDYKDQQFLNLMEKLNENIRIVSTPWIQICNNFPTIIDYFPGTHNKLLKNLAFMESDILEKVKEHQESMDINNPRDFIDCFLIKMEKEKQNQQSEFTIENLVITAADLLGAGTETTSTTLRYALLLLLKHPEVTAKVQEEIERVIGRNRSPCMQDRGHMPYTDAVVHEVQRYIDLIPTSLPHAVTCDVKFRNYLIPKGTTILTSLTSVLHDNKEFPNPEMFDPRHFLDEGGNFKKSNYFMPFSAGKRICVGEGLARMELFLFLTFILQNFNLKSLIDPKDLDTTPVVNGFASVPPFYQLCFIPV

[19] = Luminescence Cell-Based Dose Retest to Confirm Inhibitors of Cancer Stem Cells. [Related pubchem assays (depositor defined):AID2717, AID2721]; format: functional; settings: Homo sapiens
[20] = THP-1 cell cytotoxicity, dose response, cytotoxicity control for non-replicating M. tuberculosis project (AID 489025); format: functional

CC(C)(C)c1ccc(NC(=O)C2=CN3CCS(=O)(=O)N=C3C=C2)cc1
IC50 [1]: 5.24 µM (active)
IC50 [2]: 8.51 µM (active)

COc1ccc2cc(/C=C/C(=O)N3CCN(CC(=O)N4CCCCCC4)CC3)ccc2c1
EC50 [3]: > 260 µM (inactive)

Cc1c(NC(=O)c2cc(-n3cnnc3)ccc2Cl)cccc1-c1nc2ccccc2o1
IC50 [1]: 2.56 µM (active)
IC50 [2]: 2.65 µM (active)

CC(C)(C)[C@@H]1COC(=O)[C@@H](NC(=O)OCC2c3ccccc3-c3ccccc32)C/C=C\C[C@@H](CC(=O)NCCO)C(=O)N1
AC50 [4]: 26.3 µM (active)
AC50 [5]: 22.1 µM (active)

O=C(CC(=O)N/N=C/c1ccc(O)cc1)N/N=C/c1ccc(O)cc1
IC50 (Large T antigen): 13.8 µM (active)
AC50 [6]: 1.15 µM (active)

CC(C)c1ccc(CN(C)C(=O)c2ccc(S(=O)(=O)NCc3ccco3)cc2)cc1
CC50 (Vero): 12.7 µM (active)

Cn1c(Cc2ccccc2)nnc1SCCC(=O)Nc1ccccc1
IC50 [1]: 2.03 µM (active)
IC50 [2]: 4.55 µM (active)

Cc1nc2cc(N)ccc2n1C1CCCCC1
EC50 [7]: > 300 µM (not active)
EC50 [8]: 4.72 µM (inconclusive)
AC50 [6]: 0.277 µM (active)

COc1cc(/C=N/N2CCCCC2)cc(OC)c1O
AC50 [6]: 0.639 µM (active)

O=C(N/N=C\c1c(O)ccc2ccccc12)c1ccc(O)cc1
EC50 [9]: 5.97 µM (active)
EC50 (cells [10]): 10.6 µM (active)
EC50 [11]: 10 µM (active)
EC50 (cells [12]): > 350 µM (not active)
EC50 [13]: 8.71 µM (active)

CC(C)NS(=O)(=O)c1ccc2c(c1)NCC2
AC50 [6]: 5.77 µM (active)

C[n+]1cccc(C(=O)NCC2CCCO2)c1 (centres undefined)
IC50 [1]: 2.55 µM (active)
IC50 [2]: 4.44 µM (active)

COCc1cc(C)nc(N2CCN(Cc3ccccc3)CC2)c1C#N
IC50 [1]: 3.15 µM (active)
IC50 [2]: 3.55 µM (active)

CCN(CC)c1ccc(/C=N/NC(=O)CNC(=O)C2COc3ccccc3O2)c(O)c1 (centres undefined)
EC50 (Streptokinase A): > 150 µM (not active)
EC50 [14]: 1.2 µM (active)
EC50 [9]: 0.311 µM (active)
EC50 (cells [10]): 66.6 µM (active)
AC50 (INS1): 1.31 µM (active)
EC50 [11]: 0.229 µM (active)
EC50 [15]: 4.2 µM (active)
EC50 [16]: 5.42 µM (inconclusive)
EC50 (Streptococcus): > 150 µM (not active)
EC50 (cells [12]): > 350 µM (not active)
EC50 [17]: 1.51 µM (active)
EC50 [13]: 0.646 µM (active)
EC50 [18]: 8.15 µM (active)

CC1(c2ccccc2)CC2CC(c3ccccc3)N1O2 (centres undefined)
EC50 [3]: > 260 µM (inactive)

COc1ccc(N2CCN(C(CNS(=O)(=O)c3ccc(C)cc3)c3ccccc3)CC2)cc1 (centres undefined)
IC50 (Nonstructural protein 1): > 100 µM (active)

COc1ccc(-c2nc(C#N)c(N3CCN(C(=O)c4ccco4)CC3)o2)cc1OC
EC50 (cells [10]): > 350 µM (not active)
EC50 (cells [12]): > 350 µM (not active)

COc1cccc(-c2noc(Cn3nc(C)c([N+](=O)[O-])c3C)n2)c1
AC50 (Cytochrome P450 2C19): 1 µM (inconclusive)
AC50 [6]: 0.983 µM (active)

CCOC(=O)CNC(=O)C1(NC(=O)CNC(=O)OCc2ccccc2)CCCC1 (Cbz-Gly-[Ac5c]-Gly-OEt)
AC50 [4]: 49.2 µM (active)

Cn1cc(/C=N/NC(=O)c2cc3cc(Br)ccc3o2)c2ccccc21
IC50 [1]: 3.98 µM (active)
IC50 [2]: 39.3 µM (active)

O=C(CSC1=NCCS1)NC1CCCCC1
IC50 [1]: 3.67 µM (active)
IC50 [2]: 3.76 µM (active)

CCOc1ccc(NCc2cccn2-c2nnc(N3CCC(C(=O)NCCCN4CC(C)CC(C)C4)CC3)s2)cc1 (centres undefined)
CC50 (Vero): 23.9 µM (active)
IC50 (Large T antigen): 19.3 µM (active)

COc1ccc(N2CCN(C(=O)CN(C)S(=O)(=O)c3cc(C)ccc3OC)CC2)cc1
EC50 (cells [10]): > 350 µM (not active)
EC50 (cells [12]): > 350 µM (not active)

COc1ccc(NC(=O)C(=O)N2N=C3CCCCC3C2(O)C(F)(F)F)cc1 (centres undefined)
IC50 [1]: 6.08 µM (active)
IC50 [2]: 6.97 µM (active)

Cc1ccc(-c2nn(-c3cc(Cl)ccc3[N+](=O)[O-])c(=O)c3ccccc23)cc1
EC50 [3]: > 260 µM (inactive)

Cc1ccc(S(=O)(=O)N2CC(O)C[C@H]2C(=O)OCC(=O)Nc2ccc(N3CCCCC3)cc2)cc1C (some centres undefined)
IC50 (Nonstructural protein 1): 62.8 µM (active)

O=C1Nc2ccc(Cl)cc2/C1=C/C1CC=CCC1 (centres undefined)
EC50 (cells [10]): > 350 µM (not active)
EC50 (cells [12]): 61.2 µM (active)

Nc1nonc1-n1nnc(C(=O)N/N=C/c2ccc(OCc3ccc(F)cc3)cc2)c1COc1ccccc1
CC50 (Vero): > 25 µM (active)

CN1C(=O)C(=CNNc2ccccc2)C(=O)N(C)C1=O
AC50 [19]: 2.87 µM (active)
AC50 [6]: 0.031 µM (active)

O=S(=O)(c1ccc(OCC2CO2)cc1)c1ccc(OCC2CO2)cc1 (centres undefined)
CC50 [20]: 32.2 µM (active)

Oc1cc(O)nc(SCc2ccccc2)n1
AC50 [6]: 2.33 µM (active)

O=C1N(c2ccccc2)CCN1c1ccccc1
EC50 [3]: > 260 µM (inconclusive)

CCC/C(=N/NC(=O)c1cccc(Cl)c1)c1ccccc1
EC50 (cells [10]): > 350 µM (not active)
EC50 (cells [12]): > 350 µM (not active)

COc1ccc(-c2c(C)nn3c(NC4CCCC4)cc(C)nc23)cc1OC
EC50 [3]: > 260 µM (inactive)
